Laboratory results as given in patent US11667643B2, “RIP1K inhibitors” (priority 2020, dated 2023).
Where two headings read alike, the source gives them in different places.

Experiments:
[1] = biological target: RIPK1 (Homo sapiens (Human), UniProt Q13546); test: biochemical; format: biochemical
In short: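 ADP-Glo luminescent assay of RIPK1 at 31 ng/well in Tris-HCl pH 7.4 buffer with MgCl2, BSA, 100 μM DTT and 4 mM MnCl2; compounds run in duplicate. Kinase reaction 30 min at 30 °C, then ADP-Glo 40 min and detection reagent 30 min at room temperature; ADP formation read as luminescence.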

[2] = system: U937 cells; test: U937 cell necroptosis assay (TNFa + zVAD, CellTiter-Glo recovery), functional human RIP1 assay; format: cell-based; details: Homo sapiens, U-937, 18 h, read-out: U937 Zvad TNF CTG Recovery, U937, TNFa + zVAD (IC50), U937 cells, zVAD-fmk, TNFa 2 ng/mL, 18 hours, CellTiter-Glo
In short: (§1)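 Human U937 cells (50K/well, 60 uM zVAD-fmk in plating medium) and murine L929 cells (10K/well, medium replaced with 40 uM zVAD-fmk) were pre-incubated with compound 1 h at 37 °C. TNFa was then added at a final 2 ng/mL. Viability by CellTiter-Glo luminescence after 18 h.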

[3] = system: L929 cells; test: L929 cell necroptosis assay (TNFa + zVAD, CellTiter-Glo recovery), functional murine RIP1 assay; format: cell-based; details: Mus musculus, L929, 18 h, read-out: L929-CTG-recovery, L929, TNFa + zVAD (IC50), L929 cells, zVAD-fmk, TNFa 2 ng/mL, 18 hours, CellTiter-Glo
In short: as §1

[4] = RIPK1 enzyme 31 ng/well, 30° C. for 30 minutes, luminescence, read-out: RIPK1 ADP-Glo Kinase (IC50)

Sequence of RIPK1 (Q13546 whole entry, species assumed): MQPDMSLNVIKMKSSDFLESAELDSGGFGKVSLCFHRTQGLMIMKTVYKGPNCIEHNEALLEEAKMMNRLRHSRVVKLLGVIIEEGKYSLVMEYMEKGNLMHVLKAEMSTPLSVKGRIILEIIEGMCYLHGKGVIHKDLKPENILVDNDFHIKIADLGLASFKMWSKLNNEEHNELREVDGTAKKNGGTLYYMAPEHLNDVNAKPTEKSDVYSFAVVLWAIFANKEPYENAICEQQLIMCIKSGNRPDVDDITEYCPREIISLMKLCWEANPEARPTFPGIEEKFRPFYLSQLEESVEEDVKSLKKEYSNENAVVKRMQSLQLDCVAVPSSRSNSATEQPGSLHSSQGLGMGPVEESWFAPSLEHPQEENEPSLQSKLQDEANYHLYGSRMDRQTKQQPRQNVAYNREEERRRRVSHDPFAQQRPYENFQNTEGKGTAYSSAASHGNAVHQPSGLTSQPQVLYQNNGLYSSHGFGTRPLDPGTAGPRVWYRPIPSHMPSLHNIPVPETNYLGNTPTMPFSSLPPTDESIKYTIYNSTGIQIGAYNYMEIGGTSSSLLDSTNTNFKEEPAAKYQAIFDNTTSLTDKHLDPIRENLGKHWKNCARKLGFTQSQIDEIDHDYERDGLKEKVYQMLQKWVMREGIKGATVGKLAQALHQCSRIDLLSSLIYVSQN

| Compound | IC50 [1, 4] [µM] | IC50 [2] [µM] | IC50 [3] [µM] | IC50 [1] [µM] |
| --- | --- | --- | --- | --- |
| O=C(N[C@H]1COc2ccccc2-n2nnnc21)c1ncn(Cc2c(Cl)cccc2Cl)n1 [Compound I-11, (R)-1-(2,6-Dichlorobenzyl)-N-(4,5-dihydrobenzo[6]tetrazolo[1,5-d][1,4]oxazepin-4-yl)-1H-1,2,4-triazole-3-carboxamide] | 0.0178 | 0.0343 | 10000 | – |
| O=C(N[C@H]1COc2ccccc2-n2nnnc21)c1ncn(Cc2ccccc2F)n1 [Compound I-21, (R)—N-(4,5-Dihydrobenzo[b]tetrazolo[1,5-d][1,4]oxazepin-4-yl)-1-(2-fluorobenzyl)-1H-1,2,4-triazole-3-carboxamide] | 0.0567 | 0.0625 | 160 | – |
| O=C(N[C@H]1CSc2ccccc2-n2nnnc21)c1ncn(Cc2ccc(F)cc2)n1 [Compound I-22, (R)—N-(4,5-Dihydrobenzo[b]tetrazolo[1,5-d][1,4]thiazepin-4-yl)-1-(4-fluorobenzyl)-1H-1,2,4-triazole-3-carboxamide] | 0.0321 | 0.002 | 2.48 | – |
| O=C(N[C@H]1CSc2ccccc2-n2nnnc21)c1cc(Cc2ccccc2)on1 [Compound I-23, (R)-5-Benzyl-N-(4,5-dihydrobenzo[b]tetrazolo[1,5-d][1,4]thiazepin-4-yl)isoxazole-3-carboxamide] | 0.0429 | 0.101 | 10000 | – |
| O=C(N[C@H]1CSc2ccccc2-n2nnnc21)c1n[nH]c(Cc2ccccc2)n1 [Compound I-24, (R)-5-Benzyl-N-(4,5-dihydrobenzo[b]tetrazolo[1,5-d][1,4]thiazepin-4-yl)-1H-1,2,4-triazole-3-carboxamide] | 0.0272 | 0.0144 | 2.14 | – |
| O=C(N[C@H]1CS(=O)(=O)c2ccccc2-n2nnnc21)c1cc(Cc2ccccc2)on1 [Compound I-25, (R)-5-Benzyl-N-(6,6-dioxido-4,5-dihydrobenzo[b]tetrazolo[1,5-d][1,4]thiazepin-4-yl)isoxazole-3-carboxamide] | 0.51 | 28.6 | 10000 | – |
| O=C(N[C@H]1C[S+]([O-])c2ccccc2-n2nnnc21)c1cc(Cc2ccccc2)on1 (stereo partly drawn) [Compound I-26, 5-Benzyl-N-((4R)-6-oxido-4,5-dihydrobenzo[b]tetrazolo[1,5-d][1,4]thiazepin-4-yl)isoxazole-3-carboxamide] | 1.37 | 0.176 | 10000 | – |
| O=C(N[C@H]1CSc2ccccc2-n2c1noc2=O)c1cc(Cc2ccccc2)on1 [Compound I-28, 5-Benzyl-N-((4R)-1-oxo-4,5-dihydro-1H-benzo[b][1,2,4]oxadiazolo[4,3-d][1,4]thiazepin-4-yl)isoxazole-3-carboxamide] | 0.0679 | 0.0165 | 10.7 | – |
| O=C(N[C@H]1CSc2ccccc2-n2nnnc21)c1n[nH]c(Cc2ccc(F)cc2)n1 [Compound I-30, (R)—N-(4,5-Dihydrobenzo[&]tetrazolo[1,5-d][1,4]thiazepin-4-yl)-5-(4-fluorobenzyl)-1H-1,2,4-triazole-3-carboxamide] | 0.0186 | 0.0679 | 10000 | – |
| O=C(N[C@H]1CSc2ccccc2-n2c1noc2=O)c1n[nH]c(Cc2ccc(F)cc2)n1 [Compound I-31, 5-(4-Fluorobenzyl)-N-((4R)-1-oxo-4,5-dihydro-1H-benzo[6][1,2,4]oxadiazolo[4,3-d][1,4]thiazepin-4-yl)-1H-1,2,4-triazole-3-carboxamide] | 0.0158 | 0.014 | 5010 | – |
| O=C(N[C@H]1CSc2ccccc2-n2c1noc2=O)c1ncn(Cc2ccc(F)cc2)n1 [Compound I-32, 1-(4-Fluorobenzyl)-N-((4R)-1-oxo-4,5-dihydro-1H-benzo[b][1,2,4]oxadiazolo[4,3-d][1,4]thiazepin-4-yl)-1H-1,2,4-triazole-3-carboxamide] | 0.0133 | 0.0016 | 0.674 | – |
| O=C(N[C@H]1CSc2ccccc2-n2c1noc2=O)c1n[nH]c(Cc2ccccc2)n1 [Compound I-33, 5-Benzyl-N-((4R)-1-oxo-4,5-dihydro-1H-benzo[b][1,2,4]oxadiazolo[4,3-d][1,4]thiazepin-4-yl)-1H-1,2,4-triazole-3-carboxamide] | 0.0125 | 0.0056 | 5.16 | – |
| O=C(N[C@H]1COc2ccccc2-n2c1noc2=O)c1n[nH]c(Cc2ccccc2)n1 [Compound I-41, 5-Benzyl-N-((4R)-1-oxo-4,5-dihydro-1H-benzo[6][1,2,4]oxadiazolo[4,3-d][1,4]oxazepin-4-yl)-1H-1,2,4-triazole-3-carboxamide] | 0.058 | 0.0481 | 10000 | – |
| O=C(N[C@H]1COc2ccccc2-n2c1noc2=O)c1ncn(Cc2c(Cl)cccc2Cl)n1 [Compound I-42, 1-(2,6-Dichlorobenzyl)-N-((4R)-1-oxo-4,5-dihydro-1H-benzo[&][1,2,4]oxadiazolo[4,3-d][1,4]oxazepin-4-yl)-1H-1,2,4-triazole-3-carboxamide] | 0.0263 | 0.041 | 10000 | – |
| O=C(N[C@H]1COc2ccccc2-n2c1noc2=O)c1cc(Cc2ccccc2)on1 [Compound I-43, 5-benzyl-N-((4R)-1-oxo-4,5-dihydro-1H-benzo[b][1,2,4]oxadiazolo[4,3-d][1,4]oxazepin-4-yl)isoxazole-3-carboxamide] | 0.11 | 0.205 | 10000 | – |
| O=C(N[C@H]1COc2ncccc2-n2c1noc2=O)c1cc(Cc2ccccc2)on1 [Compound I-46, 5-Benzyl-N-((4R)-1-oxo-4,5-dihydro-1H-[1,2,4]oxadiazolo[4,3-d]pyrido[2,3-b][1,4]oxazepin-4-yl)isoxazole-3-carboxamide] | 4.41 | 39.4 | 10000 | – |
| O=C(N[C@H]1COc2ccccc2-n2c1noc2=O)c1n[nH]c(Cc2ccc(F)cc2F)n1 [Compound I-49, 5-(2,4-Difluorobenzyl)-N-((4R)-1-oxo-4,5-dihydro-1H-benzo[b][1,2,4]oxadiazolo[4,3-d][1,4]oxazepin-4-yl)-1H-1,2,4-triazole-3-carboxamide] | 0.347 | 0.717 | 10000 | – |
| O=C(N[C@H]1COc2ccccc2-n2c1noc2=O)c1n[nH]c(Cc2ccc(F)cc2)n1 [Compound I-50, 5-(4-Fluorobenzyl)-N-((4R)-1-oxo-4,5-dihydro-1H-benzo[6][1,2,4]oxadiazolo[4,3-d][1,4]oxazepin-4-yl)-1H-1,2,4-triazole-3-carboxamide] | 0.109 | 0.246 | 10000 | – |
| O=C(N[C@H]1COc2ccccc2-n2c1noc2=O)c1cc(Oc2ccccc2)ccn1 [Compound I-53, N-((4R)-1-Oxo-4,5-dihydro-1H-benzo[6][1,2,4]oxadiazolo[4,3-d][1,4]oxazepin-4-yl)-4-phenoxypicolinamide] | 0.0204 | 0.0462 | 30.7 | – |
| CC(C)(O)C#Cc1ccc2c(c1)-n1nnnc1[C@@H](NC(=O)c1n[nH]c(Cc3ccccc3)n1)CO2 [Compound I-69, (R)-5-Benzyl-N-(9-(3-hydroxy-3-methylbut-1-yn-1-yl)-4,5-dihydrobenzo[b]tetrazolo[1,5-d][1,4]oxazepin-4-yl)-1H-1,2,4-triazole-3-carboxamide] | 0.0601 | 0.787 | 10000 | – |
| O=C(N[C@H]1COc2ccccc2-n2c1noc2=O)c1cc(O)n(Cc2ccccc2)n1 [Compound I-75, 1-Benzyl-5-hydroxy-N-((4R)-1-oxo-4,5-dihydro-1H-benzo[b][1,2,4]oxadiazolo[4,3-d][1,4]oxazepin-4-yl)-1H-pyrazole-3-carboxamide] | 10.6 | 10000 | 10000 | – |
| O=C1c2nn(Cc3ccccc3)c(Cl)c2CN1[C@H]1COc2ccccc2-n2nnnc21 [Compound I-79] | 0.652 | 16.1 | 10000 | – |
| O=C(N[C@H]1CCc2ccc(N3CCC4(CCOCC4)CC3)cc2-n2ccnc21)c1n[nH]c(Cc2ccccc2)n1 [Compound I-83, (S)—N-(9-(3-Oxa-9-azaspiro[5.5]undecan-9-yl)-5,6-dihydro-4H-benzo[f]imidazo[1,2-a]azepin-4-yl)-5-benzyl-1H-1,2,4-triazole-3-carboxamide] | 0.0435 | 0.0043 | 2.12 | – |
| O=C(N[C@H]1CCc2ccc(N3CC4(CCOCC4)C3)cc2-n2ccnc21)c1n[nH]c(Cc2ccccc2)n1 [Compound I-86, (S)—N-(9-(7-Oxa-2-azaspiro[3.5]nonan-2-yl)-5,6-dihydro-4H-benzo[f]imidazo[1,2-a]azepin-4-yl)-5-benzyl-1H-1,2,4-triazole-3-carboxamide] | 0.067 | 0.0119 | 3.45 | – |
| O=C(N[C@H]1COc2ccc(N3CC4(CCOCC4)C3)cc2-n2ccnc21)c1n[nH]c(Cc2ccccc2)n1 [Compound I-87, (R)—N-(9-(7-Oxa-2-azaspiro[3.5]nonan-2-yl)-4,5-dihydrobenzo[b]imidazo[1,2-d][1,4]oxazepin-4-yl)-5-benzyl-1H-1,2,4-triazole-3-carboxamide] | – | 0.0156 | 10000 | 0.0682 |
